We go through one compound from patent US20240000741A1, “ALL-TRANS RETINOIC ACID ENHANCES RADIOTHERAPY AND OVERCOMES IMMUNE SUPPRESSION FOR CANCER THERAPY” (The University of Chicago, priority 2022, published 2024).

In one series the test system is CD11b+CD11c+ cells. Kind of series: Quantitative real-time PCR of cells sorted from tumors. It is filed as in vivo, mouse. From the text:
Total RNA from tumor and CD11c+ cells isolated from tumors with a kit sold under the tradename EASYSEP® Mouse CD11c positive selection kit II (STEMCELL Technologies, Vancouver, Canada) was extracted with a kit sold under the tradename QUICK-RNA® Miniprep Plus kit (R1058, Zymo Research, Irvine, California, United States of America). cDNA was synthesized with a High Capacity cDNA Reverse Transcription kit (4368814, Applied Biosystems, Waltham, Massachusetts, United States of America). Real-time PCR was performed with a kit containing fluorescent chemicals sold under the tradename SYBR™ (Molecular Probes, Sunnyvale, California, United States of America), i.e., the SYBR™ Green PCR Master Mix (4309155, Applied Biosystems, Waltham, Massachusetts, United States of America) and results were normalized to β-actin. Primers used: […]
Relative gene expression was calculated using the 2^−ΔΔCT approach.
A general note: Quantitative PCR measures a nucleic acid by following its amplification.

Another series deals with nitrite (iNOS product). Kind of series: Nitrite assay of tumor fragments cultured ex vivo. It is filed as in vivo, mouse. To be noted: IR+RA treated tumors, day 4, 2 hours culture. As to the method:
Whole tumors were excised at indicated time point post treatment. Tumors were weighed and homogenized in PBS with the presence of protease inhibitor cocktails at a ratio of 1 ml per gram of tissue. 25 μl of supernatants were subjected to a bead-based cytokine and chemokine assay (a mouse inflammation panel and chemokine panel sold under the tradename LEGENDPLEX™ (BioLegend, San Diego, California, United States of America). The assays were analyzed using a LSRII flow cytometer and software sold under the tradename LEGENDPLEX™ (both from BioLegend, San Diego, California, United States of America). IFN-γ was measured using IFN-γ flex CBA set (BD Biosciences, Franklin Lakes, New Jersey, United States of America). TNF-α concentration was measured using ELISA kit from R&D Systems (MTA00B; Minneapolis, Minnesota, United States of America). For nitrite assay, equal weight of tumors were cut into pieces and cultured in DMEM medium for 2 hours. The production of NO in the supernatants was measured indirectly by measuring the concentration of nitrite by using the Griess reagent nitrite measurement kit (Cell Signaling Technology, Danvers, Massachusetts, United States of America; #13547).

Series [1] concerns MC38 colon carcinoma tumors. Kind of series: MC38 tumor growth after local ablative IR and/or RA. It is filed as in vivo, mouse.
In series [2] the test system is MC38 tumor in Rag1−/− mice. Conditions: ATRA 400 ug/each oral gavage daily plus X-ray 2 Gy/fraction, three consecutive days. As to the method:
To further study whether T cell responses are important for the antitumor efficacy of ATRA (+) treatment, 2×10^6 MC38 cells were inoculated into the right flanks of Rag1^−/− […] mice, which are deficient of T and B cells. When the tumors reached 100-120 mm^3 in volume, Rag1^−/− mice were administered 400 ug/each ATRA daily via oral gavage followed by 2 Gy/fraction X-ray on three consecutive days. The tumor size was measured with a caliper every day and the tumor volume calculated as 0.5×length×width 2. All of the mice were sacrificed when the control group tumors reached about 2000 mm^3.

For series [3], the system named is MC38 syngeneic subcutaneous flank tumor. Briefly: ATRA-sensitized fractionated radiotherapy in MC38 tumor bearing C57BL/6 mice. It is filed as in vivo, mouse. Conditions: 3 fractions. As to the method: A MC38 syngeneic subcutaneous flank tumor-bearing mouse model was used for the evaluation of in vivo efficacy of ATRA-sensitized radiotherapy. 2×10^6 MC38 cells were injected into the right flank subcutaneous tissues of C57BL/6 background mice. […] After administration, mice were anaesthetized with 2% (v/v) isoflurane and the tumors were irradiated daily with X-ray at a dose of 2 Gy/fraction (225 kVp, 13 mA, 0.3 mm-Cu filter) for a total of 3 fractions. Oil (equal volume/each) was administrated daily with or without irradiation as controls. […] All the mice were sacrificed when the tumors reached about 2,000 mm^3.

Series [4] relates to bone marrow-derived DCs (BMDCs). Kind of series: iNOS induction in bone marrow-derived dendritic cells in vitro. It is filed as cell-based, mouse. To be noted: cultured in the presence of RA (200 μM). The procedure: Femurs and tibias from 8- to 10-week-old mice were harvested. BMDCs were derived as described (40). The cultured BMDC were collected on day 6 for further experiments. For Inf-MAC induction in vitro, bone marrow cells were cocultured with the presence of 200 μM RA. On day 6, indicated amount of IFN-γ was added directly to the culture. Cells were stained for iNOS and TNF-α after 24-36 hours and analyzed using flow cytometry.

Where [5] appears, read: cells sorted from treated tumors.
[6] abbreviates: radiation and RA treatment compared to controls.
Where [7] appears, read: ATRA 400 μg/each oral gavage daily plus X-ray 2 Gy/fraction.

Each structure is given as a SMILES string.

`CC1=C(/C=C/C(C)=C/C=C/C(C)=C/C(=O)O)C(C)(C)CCC1` [RA, all-trans retinoic acid]: the “mRNA level of TNF-α in sorted CD11b+CD11c+ cells” value in the series with CD11b+CD11c+ cells (setting [5]) is reported as “increased”. Moreover, the “mRNA level of iNOS in sorted CD11b+CD11c+ cells” value in the series on CD11b+CD11c+ cells (setting [5]) is given as “increased”. For the same compound, the “transcription of CXCL9 in CD11c+ cells” value in the series on CD11b+CD11c+ cells (setting [6]) is “increased significantly”. Besides, in the series with CD11b+CD11c+ cells (setting [6]), the “transcription of CXCL10 in CD11c+ cells” value is given as “increased significantly”. Moreover, in the series on CD11b+CD11c+ cells (setting [6]), the “transcription of CXCL11 in CD11c+ cells” value is “increased significantly”. Further, in the series on nitrite (iNOS product), the “nitrite level in culture media of tumors cultured ex vivo” value is 19.8 µM. In addition, the MC38 tumor growth result in series [1] (IR (15 Gy) plus RA 400 μg/dose oral gavage, compared to untreated controls or any single treatment) is “synergistically inhibited tumor growth”; in series [1] (IR+RA, tumors grown in Rag1−/− mice, in contrast to wild type mice), “did not respond”; in series [1] (RA alone, 400 μg/dose oral gavage), “no significant effect”; in series [1] (higher dose of RA alone (800 μg/mouse/dose) for 7 days), “inhibited”; in series [3] (setting [7]), “greatly regressed the growth of tumors”. Besides, the complete tumor regression in series [1] (IR (15 Gy) plus RA combination treatment) was 17 of 19. In addition, the tumor inhibition result in series [1] (IR with RA administered by i.p. injection), in series [1] (IR with RA at a lower dose (200 μg/dose) by oral gavage) and in series [1] (IR with slow RA-releasing pellets implanted subcutaneously) was “Significant tumor inhibition effects” in each case. This compound also yielded a survival in series [1] (RA alone) of at most 50 days. The “therapeutic effect on MC38 tumors in Rag1−/− mice” value in series [2] is on record as “did not show any therapeutic effect”. Besides, the “mice totally free of tumors” value in series [3] (setting [7]) was 5 out of 5. Moreover, in series [3] (ATRA and X-ray 2 Gy/fraction), the body weight entry is on record as “did not lose body weight”. Also, the “time without tumor regrowth” value in series [3] (ATRA plus X-ray 2 Gy/fraction) is given as at least 30 days. Further, in series [4], the “iNOS production in BMDCs” value was “increased significantly”.
